The molecule `CC(c1oc2ccccc2c(=O)c1-c1ccccc1)n1ncc2c(N)ncnc21` (centres undefined) came in with a melting point of 226 to 227 °C.

`O=C(Nc1ccc(-n2nc(C3CC3)cc2C2CC2)cc1)c1ccc2nn[nH]c2c1` showed a melting point of 240 to 246 °C.

For `Cc1ccccc1C(=O)Nc1ccc(C(=O)N2Cc3ccc(Cl)n3Cc3ccccc32)cc1`, the melting point lay within 185 to 187 °C.

In the case of `CCNC(=O)OCCCCCCCCC1Cc2c(c(OC)c(OC)c(OC)c2OC)C1`, the melting point lay in the range of 85 to 86 °C.

Turning to `CCOCCOCCOCCOc1ccc(OCCCCCCCCCCCCOc2ccccc2)cc1N(CC(=O)O)CC(=O)O`, the melting point was 58 to 61 °C.

In turn, `O=C(O)Cc1ccc(-n2cc(Cl)cn2)c(Cl)c1` came in with a melting point of 132 to 133 °C.

`CCC(OC)C1(OC)OC12CO2` (centres undefined) came in with a melting point of 68 to 70 °C.

For `CCCNCc1cnc2c(C)c(NC(=O)c3ccc(OC[C@@H]4CCCO4)cc3)ccc2c1`, the melting point was 121 to 122 °C.

Molecule `O=C1NC(=O)C2(CCN(Cc3ccccc3)CC2)O1` came in with a melting point of 291 to 294 °C.

Consider `CC(=O)NC[C@H]1CN(c2ccc(N3CCC(F)(F)CC3)c(F)c2)C(=O)O1`, for which the melting point was 192 to 194 °C.

With `CN(C)C(=O)NCC1(C)OCCc2c1[nH]c1ccccc21` (centres undefined), the melting point fell in the range of 153 to 155 °C.

`Cc1cccc(-c2[nH]c(C(C)C)nc2-c2ccc(F)c(-c3ccc(C(=O)NC4CCOCC4)cc3)c2)n1` yielded a melting point of 130 to 132 °C.

For the molecule `Cc1cc(N2CCCC2)c([N+](=O)[O-])c(Cl)n1`, the melting point was in the range of 151 to 156 °C.

Molecule `CC(C)N(CCCN1C(=O)/C(=N/NC(N)=O)c2ccccc21)C(C)C` showed a melting point of 173 to 175 °C.

Consider `COc1cccc(CCN2C(=O)c3c(F)c(F)c(F)c(F)c3C2(O)c2ccc(F)cc2)c1` (centres undefined), for which the melting point amounted to 161 °C.

As for `O=C(O)c1ccc(-c2ncc(-c3ccc(Cl)cc3)s2)cc1`, the melting point is over 300 °C.

In turn, `Cn1ncc(C(=O)O)c1C(=O)Nc1ccn2nc(-c3ccnc(F)c3)nc2c1` displayed a melting point of over 290 °C.

With `Cc1ccc(SC(CCCCCc2ccc(Cl)cc2)C(=O)O)cc1` (centres undefined), the melting point is 58 to 61 °C.

Molecule `Cc1nc(N2CCOCC2)nc(C)c1-c1cccc2c1OC[C@H]2Nc1ccc2c(c1)OC[C@H]2CC(=O)O` showed a melting point of 168 °C.

`C=Cc1ccc(C(=O)Oc2ccc(NS(C)(=O)=O)cc2)cc1`: the melting point was in the range of 172 to 173 °C.

Turning to `Cc1nn(-c2c(Cl)cc(C(F)(F)F)cc2Cl)nc1CC#N`, the melting point was in the range of 103 to 104 °C.

Consider `Cc1cc(N2CCN(CCOc3ccccc3)C2=O)sc1C(=O)NCc1cccnc1`, for which the melting point fell in the range of 78 to 80 °C.

For `CS(=O)(=O)c1ccc(-c2ccccc2CO)cc1`, the melting point lay within 123 to 124 °C.

Regarding `CC(c1cccc(-c2c[nH]nn2)c1)C(O)(Cn1cncn1)c1ccc(F)cc1F` (centres undefined), the melting point fell in the range of 168 to 170 °C.

Turning to `CCC(C(=O)c1ccc(C(C)C)c(OS(N)(=O)=O)c1C(C)C)c1ccccc1` (centres undefined), the melting point was in the range of 142 to 145 °C.

With `COc1ccc(CCC(C)NC(Cc2ccccc2C)=NC#N)cc1` (centres undefined), the melting point was 103 to 104 °C.

The molecule `CN1CCC(C2c3ccccc3C=Cc3ccccc32)CC1` yielded a melting point of 127 °C.

The molecule `COc1cc(NS(C)(=O)=O)cc(OC)c1-c1ccc(C[C@H](NC(=O)c2c(Cl)cccc2Cl)C(=O)O)cc1` returned a melting point of 154 to 155 °C.

Molecule `OC1CCCCC1n1c(NC2CC2)nc2cc(Cl)c(Cl)cc21` (centres undefined) had a melting point of 149 to 151 °C.

In turn, `C=C=COc1ccc(-c2ccc(OC=C=C)cc2)cc1` returned a melting point of 135 to 138 °C.

Take `COC(=O)c1nc(-c2ccc(CO)cc2)cc(N)c1Cl`: the melting point was 138 to 139 °C.

As to `Oc1c(Br)cc(F)cc1Cc1cc(Cl)cc(Cc2cc(F)cc(Br)c2O)c1O`, the melting point fell in the range of 192 to 194 °C.

As to `CS(=O)(=O)Nc1cc2occc(=O)c2cc1Oc1ccccc1N`, the melting point lay within 238 to 240 °C.

Molecule `CCCn1c(=S)nc(NCc2ccncc2)c2[nH]c(C3CC3)nc21` displayed a melting point of 204 to 210 °C.

As for `CCOc1ccc2nc(N3CCC(OC[C@H](C)NC(C)=O)CC3)sc2c1`, the melting point lay in the range of 129 to 131 °C.

`CC(C)N(Cc1cnc(-c2ncn3c2CN(C)C(=O)c2cc(F)ccc2-3)o1)C(C)C` had a melting point of 176 to 178 °C.

`CCOC(=O)C=Cc1csc(Nc2ccccc2)n1`: the melting point was 113 to 118 °C.

`CN(C)CC1CN(Cc2ccccc2)c2ccccc2N1C=O` (centres undefined) showed a melting point of 82 to 84 °C.

`O=C1NCCc2ccccc2N1OCCCCN1CCN(c2cccc(C3CC3)n2)CC1` returned a melting point of 155 to 156 °C.

In turn, `OC1CSC(Oc2cncc(-c3cccs3)c2)C(O)C1O` (centres undefined) gave a melting point of 205 °C.

Consider `Nc1nc2ccccc2c2c1ncn2CCCCCS(=O)(=O)c1ccccc1`, for which the melting point was 171 to 172 °C.

On to `CCCOc1ccccc1-c1nc(O)cc(O)n1`, for which the melting point is 224 to 225 °C.

Molecule `CCCCc1nn2ccccc2c1C(=O)c1ccccc1C#N` returned a melting point of 116 °C.

As for `OC(COc1ccc(-c2ccc(I)cc2)cc1)CN1CCCC1` (centres undefined), the melting point is 123 to 124 °C.

`CNC(=O)Cn1c(-c2ccc(Cl)cc2)nc2cccnc21`: the melting point worked out at 238 °C.

Turning to `O=[N+]([O-])c1cc(Cl)c(CO)c(Cl)c1`, the melting point lay in the range of 111 to 114 °C.

`OC1CSC(Oc2ccc(-c3ccoc3)nc2)C(O)C1O` (centres undefined): the melting point was 132 °C.

For the molecule `O=C(NCc1ccc(Cl)cc1)c1cnc2c(Cl)cccc2c1O`, the melting point was in the range of 279 to 281 °C.

Molecule `Cc1cc(Cl)c(-n2nc(C#N)c(-c3ccco3)c2N)c(Cl)c1` showed a melting point of 192 °C.

`O=C(NC1CCCc2sccc21)N1CCOCC1` (centres undefined) displayed a melting point of 152 to 154 °C.

Molecule `Cc1nc(-c2ccccc2)nc(-c2ccncc2)c1N` gave a melting point of 208 to 209 °C.

Molecule `COc1nc(N2CCOCC2)c(Cl)nc1NS(=O)(=O)c1cccc(Cl)c1Cl` showed a melting point of 150 to 151 °C.

Consider `CCOc1cccc(-c2nc3n(n2)Cc2ccccc2-3)c1`, for which the melting point was in the range of 166 to 167 °C.

With `CC(=O)Nc1ccc(C(=O)N2CC3CC(CN(Cc4ccc(Cl)cc4)C3)C2)cc1`, the melting point was 181 °C.

In turn, `CC(C)S(=O)(=O)c1cc(OCc2ccccc2)c2[nH]nc(N)c2c1` showed a melting point of 179 to 180 °C.

Consider `CN(C)C(=O)c1cnn(-c2ccc(Br)cc2)c1C#N`, for which the melting point is 131 to 133 °C.

Regarding `O=C(CN1CCC(Cc2ccc(F)cc2)CC1)Nc1ccc2c(c1)NC(=O)CO2`, the melting point was 185 to 187 °C.

Regarding `CCOc1cc(C2(C)CNC(=O)O2)ccc1OC` (centres undefined), the melting point was 85 °C.

In the case of `COC(=O)c1ccc(OC(=O)c2ccc(OC)c(C34CC5CC(CC(C5)C3)C4)c2)cc1O`, the melting point fell in the range of 125 to 127 °C.

In turn, `NS(=O)(=O)c1cccc(-c2cc(-c3nc(-c4cccc(C(F)(F)F)c4)cc(C(F)(F)F)n3)ccn2)c1` showed a melting point of 244 °C.

The molecule `COc1cc(N)c([N+](=O)[O-])cc1O` showed a melting point of 171 °C.

Turning to `Cc1oc(-c2ccccc2)nc1COc1ccc(CON=C(CCC(=O)O)c2ccccn2)cc1`, the melting point lay in the range of 116 to 117 °C.

For `O=c1ccn(-c2cccc(C(F)(F)F)c2)nc1-c1ccnn1-c1ccc(F)cc1`, the melting point fell in the range of 130 to 131 °C.

On to `CC(=O)OCC1OC(O)(c2ccc(Cl)cc2)C(OC(C)=O)C(OC(C)=O)C1OC(C)=O` (centres undefined), for which the melting point was 124 °C.

`COc1ccc2c(c1)c(CC(=O)O)c(C)n2-c1ccnc2cc(Cl)ccc12`: the melting point was 248 to 250 °C.

In turn, `O=C1Nc2cc(Cl)ccc2C(=O)C1c1cccs1` (centres undefined) came in with a melting point of 305 to 307 °C.

Regarding `Cc1ccc2c(c1)C(=O)C(CC=O)C2` (racemic), the melting point lay within 53 to 54 °C.

Consider `Oc1ccc2nc(-c3ccccc3)cc(Cl)c2c1`, for which the melting point lay in the range of 180 to 181 °C.

In turn, `O=C1OCCn2c1cc(=O)c(O)c2C(O)c1ccc(F)cc1` (centres undefined) returned a melting point of 221 to 225 °C.

`N=C(NO)c1nc(-c2ccc(C(F)(F)F)cc2)cc(C(F)(F)F)n1` registered a melting point of 224 °C.

Molecule `CNCc1cccc(C2CCN(c3cc4c(cc3F)c(=O)c(C(=O)O)cn4C3CC3)C2)c1` (centres undefined) gave a melting point of 239 to 240 °C.

On to `Cn1c2ccccc2c2c3c(ccc21)C(=O)OC3=O`, for which the melting point was 153 °C.

Molecule `Cc1ccc(C)n1-c1ccccc1OCC(O)CNC(C)C` (centres undefined) displayed a melting point of 73 to 75 °C.

`OCC1OC(n2cnc3c(NCC4(c5cccc(Cl)c5)CCC4)ncnc32)C(O)C1O` (centres undefined) showed a melting point of 92 to 98 °C.

Take `C=Cc1cc(S(=O)(=O)c2ccc(N)cc2)cc(N2CCCC2)n1`: the melting point lay in the range of 181 to 182 °C.

As to `CCn1c(=O)c2cc(C(=O)O)cn2c2ccccc21`, the melting point lay in the range of 314 to 316 °C.

`CCOC(=O)C1=C(C)Nc2ccnn2C1c1ccccc1C(F)(F)F` (centres undefined) returned a melting point of 182 to 183 °C.

Consider `CC(NC(=O)OC(C)(C)C)c1ccc(NS(C)(=O)=O)c(C#Cc2ccccc2)c1` (centres undefined), for which the melting point lay in the range of 157 to 158 °C.

`CN(C)/C=N/c1nc(=O)n(C(=O)NCc2ccccc2)cc1F` had a melting point of 147 to 150 °C.

As for `CC(C#N)CC(=O)c1cccc(Cl)c1` (centres undefined), the melting point is 72 to 75 °C.

The molecule `O=C1CCC(c2ccccc2)(c2ccccc2)C2CN(C(Cc3ccccc3)=NCc3cccc(F)c3)CC12` (centres undefined) returned a melting point of 156 °C.

In turn, `O=C1N(Cc2cccnn2)c2ccccc2C12COc1cc3c(cc12)CCO3` (centres undefined) came in with a melting point of 81 to 82 °C.

Consider `CCOC(=O)C1C(Cl)C(=O)N1c1ccc(OC)cc1` (centres undefined), for which the melting point lay within 99 to 100 °C.

Consider `COc1cc(COc2nn(-c3ccccc3)cc2/C=C/c2ccccn2)ccc1OCc1nc(-c2ccco2)oc1C`, for which the melting point was 135 to 136 °C.

In the case of `CCN(CC)CCOc1ccc2cc3ccc(OCCN(CC)CC)c(Br)c3nc2c1Br`, the melting point lay in the range of 66 to 68 °C.

Turning to `CC(C)(C)OC(=O)Nc1cnc(F)cc1C(=O)CC#N`, the melting point lay within 106 to 115 °C.

Molecule `CCOC(=O)c1csc(C)c1N(CC)c1nc(C)cc(C)n1` registered a melting point of 99 to 100 °C.

In turn, `O=C(O)c1ccc(OCCCNc2ccc(NCc3ccc4c(c3)OCCO4)cc2)cc1` showed a melting point of 246 to 247 °C.

Regarding `O=c1[nH]nc(-c2cccc([N+](=O)[O-])c2)c2ncccc12`, the melting point came out at 302 °C.

Broadly, the melting point is the temperature of the solid-liquid transition.

The values above are taken from a melting point compilation (Tetko et al.; mined from patent text by program, amines drawn as free bases though some values may be those of a salt).
